Test results taken from patent US7588899B2, “Fluorescent probes for use in protein kinase inhibitor binding assay” (Boehringer Ingelheim Pharmaceuticals, Inc., priority 2003, dated 2009).

Target: STK12 kinase domain (Homo sapiens, UniProt Q96GD4)
Assay: Fluorescence polarization titration of the fluorescent probe with STK12 kinase domain
Assay type: binding
Settings: 25 nM probe, STK12 kinase domain serially diluted
Protocol: Step one: Characterization of the Fluorescent Probe
An absorbance spectrum is first evaluated for each probe. The excitation and emission spectra are then measured in order to identify the appropriate excitation and emission wavelengths for detecting the probe. An example of such a probe is 6-(2,7-difluoro-6-hydroxy-3-oxo-3H-xanthen-9-yl)-N-[6-(5-nitro-2-phenylamino-pyrimidin-4-ylamino)-hexyl]-isophthalamic acid where the excitation and emission maxima are 496 nm and 524 nm, respectively. These fluorescence spectra were measured on an SLM-8100 fluorimeter with the probe dissolved in an assay buffer (50 mM HEPES, pH 7.4, 100 mM NaCl, 5 mM MgCl2 5 % Glycerol, 200 mM TCEP and 0.01% (w/v) CHAPS, 2 % DMSO).
The affinity of the probe for STK12 kinase domain was then determined in a titration experiment. The polarization assay is carried out in Corning® Costar® NBS 96-well solid black flat bottom plates. In this example, an LJL Analyst® assay detection system was used with filters appropriate for the excitation/emission characteristics of the fluorescent probe. STK12 kinase domain was serially diluted into wells containing 25 nM probe to cover a broad concentration range across the plate. In addition, several wells contain either probe alone or probe with the highest concentration of STK12 kinase domain. This is done in order to calculate the Qb/Qf ratio for the probe/kinase domain pair. […]

Chain of STK12 kinase domain (Q96GD4 77-327 limits assumed): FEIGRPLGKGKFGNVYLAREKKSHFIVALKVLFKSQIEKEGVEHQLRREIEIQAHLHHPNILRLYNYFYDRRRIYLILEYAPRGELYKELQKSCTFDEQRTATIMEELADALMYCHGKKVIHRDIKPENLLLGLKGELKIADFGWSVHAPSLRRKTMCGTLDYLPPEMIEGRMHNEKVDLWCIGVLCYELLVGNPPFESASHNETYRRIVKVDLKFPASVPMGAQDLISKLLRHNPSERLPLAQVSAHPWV

O=C(NCCCCCCNc1nc(Nc2ccccc2)ncc1[N+](=O)[O-])c1ccc(-c2c3cc(F)c(=O)cc-3oc3cc(O)c(F)cc23)c(C(=O)O)c1 [Compound G, 6-(2,7-difluoro-6-hydroxy-3-oxo-3H-xanthen-9-yl)-N-[6-(5-nitro-2-phenylamino-pyrimidin-4-ylamino)-hexyl]-isophthalamic acid]
binding of fluorescent probe to STK12 kinase domain: binds to the active site of STK12 kinase domain
